Type in all cases: functional
What all share (details): read-out: IZ

The subject of experiment [1] is Fusarium verticillioides. The experiment can be described thus: Antifungal activity against Fusarium verticillioides Nirenberg (Sacc.) by agar diffusion method at 50 ug. (In general: Agar diffusion results depend on both activity and mobility in agar.)
Experiment [2] concerns Fusarium verticillioides. Description: Antifungal activity against Fusarium verticillioides Nirenberg (Sacc.) by agar diffusion method at 100 ug.
For experiment [3], the system named is Fusarium verticillioides. Description: Antifungal activity against Fusarium verticillioides Nirenberg (Sacc.) by agar diffusion method at 300 ug.

Turning to `C=CCCCCCCCCC(O)=C1C(=O)C=CC1=O` [CHRYSOTRIONE A], the zone of inhibition at 50 µg/disc in experiment [1] was determined as 3 mm. For the same molecule, the zone of inhibition at 100 µg/disc in experiment [2] was 10 mm. In addition, the zone of inhibition at 300 µg/disc in experiment [3] is 35 mm.
With `CCCCCCCCCCC(O)=C1C(=O)C=CC1=O` [CHRYSOTRIONE B], the zone of inhibition at 50 µg/disc in experiment [1] amounted to 3 mm. Also, in experiment [2], the zone of inhibition at 100 µg/disc amounted to 15 mm. In experiment [3], the zone of inhibition at 300 µg/disc came out at 18 mm.
On to `Cc1cc(C2CCCCC2)n(O)c(=O)c1` [CICLOPIROX], for which the zone of inhibition at 50 µg/disc in experiment [1] is 25 mm.

Source of the values: ChEMBL document CHEMBL1139849, “Antifungal acylcyclopentenediones from fruiting bodies of Hygrophorus chrysodon” (2007).
